The test system of this assay is BDF1 mice, L1210 leukemia sc, survival T/C. In words: NCI In Vivo Anticancer Drug Screen. Data for tumor model L1210 Leukemia (subcutaneous) in B6D2F1 (BDF1) mice. The settings on record: endpoint: median survival time, higher = longer survival. On the procedure:
The antitumor activity of compounds was measured in mice bearing transplantable tumors. Survival or tumor size were measured and the results are expressed as the measurement made in the treated group (T) divided by the measurement made in the vehicle treated control group (C). The tumor model used in this assay is L1210 Leukemia (subcutaneous) in B6D2F1 (BDF1) mice

Where [1] appears, read: dose: 108.0 mg/kg/injection, schedule: Q01DX Z (sc), vehicle: saline.
Where [2] appears, read: dose: 180.0 mg/kg/injection, schedule: Q01DX Z (sc), vehicle: saline.
Setting [3] is: dose: 300.0 mg/kg/injection, schedule: Q01DX Z (sc), vehicle: saline.

Where “and” joins values, the source holds several entries; their conditions need not be identical. Identical values can stand only once. Toxic doses and inconclusive results are not listed.

On to `NC(=S)N/N=C/c1ccc(O)cn1`, for which the T/C was 120 % of control (dose: 8.4 mg/kg/injection, schedule: Q03HX024 (sc), vehicle: none); 155 % of control (dose: 10.0 mg/kg/injection, schedule: Q03HX024 (sc), vehicle: other); 183 % of control (dose: 20.0 mg/kg/injection, schedule: Q03HX024 (ip), vehicle: other); 177 % of control (dose: 20.0 mg/kg/injection, schedule: Q03HX024 (sc), vehicle: other); 175 % of control (dose: 23.0 mg/kg/injection, schedule: Q03HX024 (sc), vehicle: none); 238 % of control (dose: 30.0 mg/kg/injection, schedule: Q03HX024 (ip), vehicle: other). For the same compound, the T/C reads like this: (dose: 30.0 mg/kg/injection, schedule: Q03HX024 (sc), vehicle: other) 266 % of control; (dose: 39.0 mg/kg/injection, schedule: Q03HX024 (sc), vehicle: none) 165 % of control; (dose: 50.0 mg/kg/injection, schedule: Q04DX003 (sc), vehicle: other) 107 % of control and 110 % of control; (dose: 60.0 mg/kg/injection, schedule: Q03HX024 (ip), vehicle: other) 100 % of control; (dose: 65.0 mg/kg/injection, schedule: Q01DX009 (sc), vehicle: other) 158 % of control and 166 % of control; (dose: 65.0 mg/kg/injection, schedule: Q01DX Z (sc), vehicle: saline) 104 % of control. Besides, the T/C is, setting by setting: (dose: 65.0 mg/kg/injection, schedule: Q08DX009 (sc), vehicle: none) 150 % of control; (dose: 100.0 mg/kg/injection, schedule: Q01DX009 (ip), vehicle: other) 150 % of control; (dose: 100.0 mg/kg/injection, schedule: Q01DX009 (sc), vehicle: other) 155 % of control; (dose: 100.0 mg/kg/injection, schedule: Q04DX003 (ip), vehicle: other) 111 % of control; (dose: 100.0 mg/kg/injection, schedule: Q04DX003 (sc), vehicle: other) 107 % of control and 110 % of control and 111 % of control; (dose: 108.0 mg/kg/injection, schedule: Q01DX009 (sc), vehicle: other) 163 % of control and 166 % of control. Further, the T/C is, setting by setting: under setting [1], 104 % of control; (dose: 108.0 mg/kg/injection, schedule: Q04DX003 (sc), vehicle: none) 100 % of control; (dose: 108.0 mg/kg/injection, schedule: Q04DX003 (sc), vehicle: other) 103 % of control and 105 % of control; (dose: 108.0 mg/kg/injection, schedule: Q08DX009 (sc), vehicle: none) 155 % of control; (dose: 180.0 mg/kg/injection, schedule: Q01DX009 (sc), vehicle: other) 170 % of control and 177 % of control; under setting [2], 104 % of control. Also, the T/C (dose: 180.0 mg/kg/injection, schedule: Q02DX005 (sc), vehicle: other) is 99 % of control; the T/C (dose: 180.0 mg/kg/injection, schedule: Q04DX003 (sc), vehicle: none) was 100 % of control; the T/C (dose: 180.0 mg/kg/injection, schedule: Q04DX003 (sc), vehicle: other) was 104 % of control and 105 % of control; the T/C (dose: 180.0 mg/kg/injection, schedule: Q08DX009 (sc), vehicle: none) is 150 % of control; the T/C (dose: 180.0 mg/kg/injection, schedule: Q11HX006 (sc), vehicle: water) is 122 % of control; the T/C (dose: 200.0 mg/kg/injection, schedule: Q01DX009 (ip), vehicle: other) was 150 % of control. Besides, the T/C is, setting by setting: (dose: 200.0 mg/kg/injection, schedule: Q01DX009 (sc), vehicle: other) 150 % of control; (dose: 200.0 mg/kg/injection, schedule: Q04DX003 (ip), vehicle: other) 111 % of control; (dose: 200.0 mg/kg/injection, schedule: Q04DX003 (sc), vehicle: other) 98 % of control and 100 % of control and 116 % of control; (dose: 300.0 mg/kg/injection, schedule: Q01DX009 (sc), vehicle: other) 150 % of control; under setting [3], 108 % of control; (dose: 300.0 mg/kg/injection, schedule: Q02DX005 (sc), vehicle: other) 108 % of control. Besides, the T/C was 100 % of control (dose: 300.0 mg/kg/injection, schedule: Q04DX003 (sc), vehicle: none); 105 % of control and 111 % of control (dose: 300.0 mg/kg/injection, schedule: Q04DX003 (sc), vehicle: other); 111 % of control (dose: 300.0 mg/kg/injection, schedule: Q04DX003 (sc), vehicle: water); 160 % of control (dose: 300.0 mg/kg/injection, schedule: Q08DX009 (sc), vehicle: none); 122 % of control (dose: 300.0 mg/kg/injection, schedule: Q11HX006 (sc), vehicle: water); 88 % of control (dose: 400.0 mg/kg/injection, schedule: Q01DX009 (sc), vehicle: other). The T/C is, setting by setting: (dose: 400.0 mg/kg/injection, schedule: Q04DX003 (ip), vehicle: other) 111 % of control; (dose: 400.0 mg/kg/injection, schedule: Q04DX003 (sc), vehicle: other) 99 % of control and 100 % of control and 116 % of control; (dose: 500.0 mg/kg/injection, schedule: Q02DX005 (sc), vehicle: other) 100 % of control and 117 % of control; (dose: 500.0 mg/kg/injection, schedule: Q04DX003 (sc), vehicle: none) 100 % of control; (dose: 500.0 mg/kg/injection, schedule: Q04DX003 (sc), vehicle: other) 106 % of control and 111 % of control; (dose: 833.0 mg/kg/injection, schedule: Q02DX005 (sc), vehicle: other) 105 % of control and 60 % of control. For the same compound, under “dose: 1388.0 mg/kg/injection, schedule: Q02DX005 (sc), vehicle: other”, the T/C is 120 % of control and 60 % of control.

On to `CN(C)[C@@H]1C(=O)C(C(=O)NCc2nc3[nH]cnc(=S)c3[nH]2)=C(O)[C@@]2(O)C(=O)C3=C(O)c4c(O)cccc4[C@@](C)(O)[C@H]3C[C@@H]12`, for which the T/C (dose: 65.0 mg/kg/injection, schedule: Q01DX Z (sc), vehicle: methylcellulose (MC)) is 100 % of control; the T/C (dose: 108.0 mg/kg/injection, schedule: Q01DX Z (sc), vehicle: methylcellulose (MC)) is 100 % of control; the T/C (dose: 180.0 mg/kg/injection, schedule: Q01DX Z (sc), vehicle: methylcellulose (MC)) was 100 % of control; the T/C (dose: 300.0 mg/kg/injection, schedule: Q01DX Z (sc), vehicle: methylcellulose (MC)) was 105 % of control; the T/C (dose: 500.0 mg/kg/injection, schedule: Q01DX Z (sc), vehicle: methylcellulose (MC)) was 175 % of control.

Consider `O=c1[nH]cc(Br)c(=O)[nH]1`, for which the T/C (dose: 38.9 mg/kg/injection, schedule: Q01DX Z (sc), vehicle: saline) is 91 % of control; the T/C (dose: 64.8 mg/kg/injection, schedule: Q01DX Z (sc), vehicle: saline) is 95 % of control; the T/C under setting [1] is 100 % of control; the T/C under setting [2] is 100 % of control; the T/C under setting [3] was 100 % of control; the T/C (dose: 500.0 mg/kg/injection, schedule: Q01DX Z (sc), vehicle: saline) was 100 % of control.

For the compound `OC(C1CO1)C(O)C1CO1` (configuration not stated), the T/C reads like this: (dose: 0.12 mg/kg/injection, schedule: Q01DX009 (ip), vehicle: saline) 98 % of control; (dose: 0.25 mg/kg/injection, schedule: Q01DX009 (ip), vehicle: saline) 107 % of control; (dose: 0.5 mg/kg/injection, schedule: Q01DX009 (ip), vehicle: saline) 107 % of control; (dose: 1.0 mg/kg/injection, schedule: Q01DX009 (ip), vehicle: saline) 122 % of control; (dose: 1.0 mg/kg/injection, schedule: Q01DX009 (ip), vehicle: water) 116 % of control; (dose: 1.0 mg/kg/injection, schedule: Q01DX009 (sc), vehicle: water) 122 % of control. Besides, the T/C (dose: 2.0 mg/kg/injection, schedule: Q01DX009 (ip), vehicle: saline) was 150 % of control; the T/C (dose: 2.0 mg/kg/injection, schedule: Q01DX009 (sc), vehicle: water) is 150 % of control; the T/C (dose: 2.0 mg/kg/injection, schedule: Q04DX003 (ip), vehicle: water) was 111 % of control; the T/C (dose: 4.0 mg/kg/injection, schedule: Q01DX009 (ip), vehicle: saline) is 118 % of control; the T/C (dose: 4.0 mg/kg/injection, schedule: Q04DX003 (ip), vehicle: water) was 155 % of control; the T/C (dose: 4.0 mg/kg/injection, schedule: Q04DX003 (sc), vehicle: water) is 161 % of control. Also, the T/C is, setting by setting: (dose: 8.0 mg/kg/injection, schedule: Q04DX003 (ip), vehicle: water) 88 % of control; (dose: 8.0 mg/kg/injection, schedule: Q04DX003 (sc), vehicle: water) 116 % of control.

With `COS(C)(=O)=O`, the T/C is 100 % of control (dose: 23.0 mg/kg/injection, schedule: Q01DX Z (sc), vehicle: water); 94 % of control (dose: 39.0 mg/kg/injection, schedule: Q01DX Z (sc), vehicle: water); 100 % of control (dose: 65.0 mg/kg/injection, schedule: Q01DX Z (sc), vehicle: water).

Source of the values: PubChem BioAssay AID250 (DTP/NCI, 2004).
